Results: US8518958B2, “Pyrido [2,3-D] pyrimidines and their use as kinase inhibitors” (Forma Therapeutics, Inc., priority 2006, dated 2013)

Assays:
[1] = target: B-Raf delta1-415 (Homo sapiens, UniProt P15056); assay: B-Raf kinase inhibition (MAPH filter plate, 33P-ATP, MEK1 substrate); conditions: read-out: Biochemical IC50 B-Raf
Description: We characterized the in vitro inhibitory activity against protein kinases of compounds of the present invention by determining their IC50 values (see Table 2).
Kinase: B-Raf delta1-415 (e.g., Upstate Cat. No. 14-530)
Reaction Temperature: room temperature
Assay Plate: 96 well U bottom plate (Greiner, 650161)
MultiScreen-PH Plate: 96 well MAPH Filter Plates (Millipore, MAPHNOB50)
Filter Washing Solution: 0.75% H3PO4
Szintilation Liquid: Supermix Liquid Szintillator (PerkinElmer, 1200-439)
Negative Control (C−): 100 mM EDTA, no Inhibitor
Positive Control (C+): no Inhibitor
Reaction Buffer: 20 mM Mops, pH 7.0 • 10 mM MgCl2 • 0.4 mM MnCl2 • 100 mM NaCl • 1 mM DTT • 0.01% NP40
Final Assay Concentrations:
Kinase: Kinase conc. yielding 50% substrate turnover as determined in titration experiment.
Adenosine 5′-[γ-^33P]triphosphate: 12.5 μCi/ml (Amersham Biosciences, BF1000)
Pipetting Sequence: • 1) Add 10 μl 4-fold concentrated substrate in 3-fold concentrated reaction buffer to each well of assay plate • 2) Add 10 μl 4-fold concentrated inhibitor in 4% DMSO in H2O to each well except to C− and C+ wells (starting point: final inhibitor concentration 10 μM; IC50 determination based on dilution series) • 3) Add 10 μl 4% DMSO in H2O to C− and C+ wells • 4) Add 10 μl 500 mM EDTA in H2O to C− wells • 5) Add 10 μl 50 μCi/ml adenosine 5′-[γ-^33P]triphosphate in H2O+4-fold cold ATP to each well • 6) Add 10 μl 4-fold concentrated kinase in reaction buffer to each well • 7) Incubate 1 hr at room temperature • 8) Add 10 μl 50 mM EDTA in H2O to each well except to C− wells • 9) Prepare MAPH plates by adding 200 μl 0.75% H3PO4 to each well • 10) Exhaust 0.75% H3PO4 using Millipore vacuum station • 11) Add 60 μl 0.75% H3PO4 to each well of MAPH filter plate • 12) Transfer 30 μl sample per well from assay plate to corresponding well of MAPH filter plate • 13) Incubate 30 min at room temperature • 14) Wash each well of MAPH filter plates 3× with 200 μl 0.75% H3PO4 using Millipore vacuum station • 15) Add 20 μl scintillation liquid to each well of MAPH filter plate • 16) Seal MAPH filter plate • 17) Store MAPH filter plate 30 min in darkness • 18) Quantify radioactivity using scintillation counter (MicroBeta, Perkin-Elmer)

[2] = tested on: HT-29 tumor cells; assay: Anti-proliferative activity, SRB assay; type: cell-based, human; conditions: Homo sapiens, HT-29, 72 h, 72 hours exposure, read-out: CELLULAR IC50 HT-29
Experimental: We observed the surprising finding that compounds of the invention were useful in inhibiting proliferation of HT-29 tumor cells (see Table 3).
3,000-15,000 cells/well were exposed to the test compounds at various concentrations appropriate to determine an IC50, for 72 hours, and cell proliferation was measured using the SRB assay according to Shekan et al (J Natl Cancer Inst (1990) 82, 1107-112) in order to estimate the IC50 values shown in Table 3. Briefly, cells were plated in 96 well dishes 24 hours prior to compound addition. The assay was terminated with the addition of cold TCA to a final concentration of 10% and the plates were incubated for one hour at 4° C. The plates were then washed 5 times with water and 100 μl of a Sulforhodamine B solution (4%) was added to each well. The plate was then incubated for 10 minutes at room temperature before removal of unbound dye by washing with 1% acetic acid. The bound dye was solubilized with 10 mM Trizma base and the absorbance read at OD570. Inhibitory activity of the compounds was calculated as % inhibition of cell proliferation compared to cells treated with the solvent (DMSO).

Chain of B-Raf delta1-415 (P15056 416-766): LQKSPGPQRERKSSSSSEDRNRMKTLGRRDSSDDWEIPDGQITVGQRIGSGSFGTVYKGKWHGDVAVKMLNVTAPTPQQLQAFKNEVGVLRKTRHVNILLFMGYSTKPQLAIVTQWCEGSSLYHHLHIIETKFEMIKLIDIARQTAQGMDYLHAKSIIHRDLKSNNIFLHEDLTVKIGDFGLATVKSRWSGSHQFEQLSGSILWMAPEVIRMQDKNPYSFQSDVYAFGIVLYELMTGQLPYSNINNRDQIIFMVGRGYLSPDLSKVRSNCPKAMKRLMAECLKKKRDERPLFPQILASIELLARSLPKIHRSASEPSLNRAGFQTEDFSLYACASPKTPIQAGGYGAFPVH

IC50 [1]	IC50 [2]	SMILES
< 0.5 µM	< 1 µM	COn1c(=O)c(-c2c(Cl)cccc2Cl)cc2cnc(Nc3cc(C(=O)NCCCN4CCCC4)n(C)c3)nc21 [Compound 95]
> 1 µM	< 10 µM	O=c1ccc2cnc(Nc3ccccc3)nc2n1OC1CCCC1 [Compound 225]
< 0.5 µM	< 1 µM	COn1c(=O)c(-c2c(Cl)cccc2Cl)cc2cnc(Nc3cc(C(=O)NCCO)n(C)c3)nc21 [Compound 82, 6-(2,6-Dichlorophenyl)-2-(5-(2-hydroxyethyl)aminocarbonyl-1-methyl-pyrrol-3-yl)-amino-8-methoxy-pyrido[2,3-d]pyrimidin-7-one]
< 0.5 µM	< 1 µM	COn1c(=O)c(-c2c(C)cccc2C)cc2cnc(Nc3cc(C(=O)NCCN4CCCC4)n(C)c3)nc21 [Compound 87, 6-(2,6-Dimethylphenyl)-8-methoxy-2-(5-(2-pyrrolidinoethyl)aminocarbonyl-1-methyl-pyrrol-3-yl)-amino-pyrido[2,3-d]pyrimidin-7-one]
< 0.5 µM	< 1 µM	CCCN1CCN(c2ccc(Nc3ncc4cc(-c5c(F)cccc5Cl)c(=O)n(OC)c4n3)cc2)CC1 [Compound 217, 6-(2-Chloro-6-fluorophenyl)-8-methoxy-2-(4-(4-propylpiperazino)phenyl)-amino-pyrido[2,3-d]pyrimidin-7-one]
< 0.5 µM	< 1 µM	O=c1c(-c2c(F)cccc2Cl)cc2cnc(Nc3ccc(N4CCOCC4)cc3)nc2n1OCC1CCCC1 [Compound 173]
> 1 µM	< 1 µM	O=c1c(-c2c(F)cccc2Cl)cc2cnc(Nc3ccccc3)nc2n1OCC1CCOCC1 [Compound 164, 6-(2-Chloro-6-fluorophenyl)-2-phenylamino-8-(tetrahydropyran-4-ylmethyl)oxy-pyrido[2,3-d]pyrimidin-7-one]
< 1 µM	< 1 µM	CO/N=C/c1ccc(Nc2ncc3cc(-c4c(Cl)cccc4Cl)c(=O)n(OC)c3n2)cc1 [Compound 209, 2-(4-(methoximino)methylphenyl)-amino-6-(2,6-dichlorophenyl)-8-methoxy-pyrido[2,3-d]pyrimidin-7-one]
< 0.1 µM	< 1 µM	COn1c(=O)c(-c2c(Cl)cccc2Cl)cc2cnc(Nc3cccc(S(=O)(=O)NCCO)c3)nc21 [Compound 126, 6-(2,6-Dichlorophenyl)-2-(3-(2-hydroxyethyl)aminosulfonyl-phenyl)-amino-8-methoxy-pyrido[2,3-d]pyrimidin-7-one]
< 0.1 µM	< 1 µM	O=c1c(-c2c(F)cccc2Cl)cc2cnc(Nc3ccc(N4CCOCC4)cc3)nc2n1OC[C@@H]1CCNC1 [Compound 149]
> 10 µM	> 10 µM	CC(C)(C)On1c(=O)c(Br)cc2cnc(Nc3ccccc3)nc21 [Compound 239]
< 0.5 µM	< 1 µM	COCCOn1c(=O)c(-c2c(Cl)cccc2Cl)cc2cnc(Nc3cc(C(=O)N(C)CCOC)n(C)c3)nc21 [Compound 170, 6-(2,6-Dichlorophenyl)-8-(2-methoxyethyl)oxy-2-(5-N-(2-methoxyethyl)-N-methyl-aminocarbonyl-1-methyl-pyrrol-3-yl)-amino-pyrido[2,3-d]pyrimidin-7-one]
< 0.5 µM	< 1 µM	COn1c(=O)c(-c2c(Cl)cccc2Cl)cc2cnc(Nc3cccc(CN4CC[C@H](O)C4)c3)nc21 [Compound 181, 6-(2,6-Dichlorophenyl)-2-(3-(3-(S)-hydroxypyrrolidinomethyl)phenyl)-amino-8-methoxy-pyrido[2,3-d]pyrimidin-7-one]
< 0.1 µM	< 1 µM	COCCN(C)C(=O)c1cc(Nc2ncc3cc(-c4c(F)cccc4Cl)c(=O)n(OC)c3n2)cn1C [Compound 194, 6-(2-Chloro-6-fluorophenyl)-2-(5-N-(2-methoxyethyl)-N-methyl-aminocarbonyl-1-methyl-pyrrol-3-yl)-amino-8-methoxy-pyrido[2,3-d]pyrimidin-7-one]
< 0.5 µM	< 1 µM	COn1c(=O)c(-c2c(Cl)cccc2Cl)cc2cnc(Nc3ccc(CN4CCN(C(C)C)CC4)cc3)nc21 [Compound 166]
< 0.5 µM	< 1 µM	COn1c(=O)c(-c2c(Cl)cccc2Cl)cc2cnc(Nc3ccc(CN4CCC4)cc3)nc21 [Compound 201, 2-(4-(1-azacyclobutyl)methylphenyl)-amino-6-(2,6-dichlorophenyl)-8-methoxy-pyrido[2,3-d]pyrimidin-7-one]
< 0.5 µM	< 1 µM	COn1c(=O)c(-c2c(F)cccc2Cl)cc2cnc(Nc3cc(C(=O)N(C)CCOC(=O)c4cccnc4)n(C)c3)nc21 [Compound 220]
< 0.5 µM	< 1 µM	COn1c(=O)c(-c2c(Cl)cccc2Cl)cc2cnc(Nc3cccc(CS(=O)(=O)NCCO)c3)nc21 [Compound 156, 6-(2,6-Dichlorophenyl)-2-(3-((2-hydroxyethylamino)sulfonylmethyl)phenyl)-amino-8-methoxy-pyrido[2,3-d]pyrimidin-7-one]
< 0.5 µM	< 1 µM	COCCN(C)C(=O)c1cc(Nc2ncc3cc(-c4c(Cl)cccc4Cl)c(=O)n(OCC4CCOCC4)c3n2)cn1C [Compound 177, 6-(2,6-dichlorophenyl)-2-(5-N-(2-methoxyethyl)-N-methyl-aminocarbonyl-1-methyl-pyrrol-3-yl)-amino-8-(tetrahydropyran-4-ylmethyl)oxy-pyrido[2,3-d]pyrimidin-7-one]
< 0.1 µM	< 1 µM	COn1c(=O)c(-c2c(Cl)cccc2Cl)cc2cnc(Nc3cccc(Cn4cncn4)c3)nc21 [Compound 134, 6-(2,6-Dichlorophenyl)-8-methoxy-2-(3-(1,2,4-triazol-1-ylmethyl)phenyl)-amino-pyrido[2,3-d]pyrimidin-7-one]
–	< 1 µM	CN1CCN(c2ccc(Nc3ncc4ccc(=O)n(OC5CCCCC5)c4n3)cc2)CC1 [Compound 236]
< 0.5 µM	< 1 µM	CCN(CC)Cc1ccc(Nc2ncc3cc(-c4c(Cl)cccc4Cl)c(=O)n(OC)c3n2)cc1 [Compound 167, 6-(2,6-Dichlorophenyl)-2-(4-diethylaminomethylphenyl)-amino-8-methoxy-pyrido[2,3-d]pyrimidin-7-one]
< 0.5 µM	< 1 µM	COCCN(C)C(=O)c1cc(Nc2ncc3cc(-c4c(Cl)cccc4Cl)c(=O)n(OCC4CC4)c3n2)cn1C [Compound 176, 6-(2,6-Dichlorophenyl)-8-cyclopropylmethyloxy-2-(5-N-(2-methoxyethyl)-N-methyl-aminocarbonyl-1-methyl-pyrrol-3-yl)-amino-pyrido[2,3-d]pyrimidin-7-one]
–	< 1 µM	Cn1cc(Nc2ncc3cc(-c4c(F)cccc4Cl)c(=O)n(OCC4CCOCC4)c3n2)cc1C(=O)N1CCNCC1 [Compound 224, 6-(2-Chloro-6-fluorophenyl)-2-(5-(piperazinocarbonyl)-1-methyl-pyrrol-3-yl)-amino-8-(tetrahydropyran-4-ylmethyl)oxy-pyrido[2,3-d]pyrimidin-7-one]
< 0.1 µM	–	NCCCCOn1c(=O)c(-c2c(Cl)cccc2Cl)cc2cnc(Nc3ccccc3)nc21 [Compound 66, 8-(4-Aminobutyl)oxy-6-(2,6-dichlorophenyl)-2-phenylamino-pyrido[2,3-d]pyrimidin-7-one]
–	< 1 µM	COc1cc(Nc2ncc3cc(-c4c(Cl)cccc4Cl)c(=O)n(OC)c3n2)ccc1N1CCNCC1 [Compound 227, 6-(2,6-Dichlorophenyl)-8-methoxy-2-(3-methoxy-4-piperazino-phenyl)-amino-pyrido[2,3-d]pyrimidin-7-one]
> 1 µM	–	CN1CCN(c2ccc(Nc3ncc4ccc(=O)n(OC(C)(C)C)c4n3)cc2)CC1 [Compound 233]
